Assay results: US11434246B2, “EP4 antagonists” (Eisai R&D Management Co., Ltd., priority 2015, dated 2022)

Biological target: EP4 (Homo sapiens, UniProt P35408)
Test: EP4 Antagonism by CRE-PLAP Reporter Assay (SE302 cells, PGE2-stimulated)
Format: cell-based
Set-up: HEK293 cells express endogenous EP4; endogenous in cells; host or cells: SE302 (HEK293 clone with CRE-PLAP reporter)
Conditions: SE302 (HEK293) cells, 3 ng/mL PGE2, overnight; single or multiple assay average values
Method in brief: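 HEK293-derived SE302 cells with endogenous EP4 and CRE-driven secreted PLAP, in serum-free medium with 0.1% BSA, stimulated overnight with 3 ng/mL PGE2 plus compound. Supernatant PLAP read by luminescence (pH 11 carbonate buffer, 2 h). IC50 from % of control, normalized to DMSO with and without PGE2.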

Sequence of EP4 (P35408 whole entry): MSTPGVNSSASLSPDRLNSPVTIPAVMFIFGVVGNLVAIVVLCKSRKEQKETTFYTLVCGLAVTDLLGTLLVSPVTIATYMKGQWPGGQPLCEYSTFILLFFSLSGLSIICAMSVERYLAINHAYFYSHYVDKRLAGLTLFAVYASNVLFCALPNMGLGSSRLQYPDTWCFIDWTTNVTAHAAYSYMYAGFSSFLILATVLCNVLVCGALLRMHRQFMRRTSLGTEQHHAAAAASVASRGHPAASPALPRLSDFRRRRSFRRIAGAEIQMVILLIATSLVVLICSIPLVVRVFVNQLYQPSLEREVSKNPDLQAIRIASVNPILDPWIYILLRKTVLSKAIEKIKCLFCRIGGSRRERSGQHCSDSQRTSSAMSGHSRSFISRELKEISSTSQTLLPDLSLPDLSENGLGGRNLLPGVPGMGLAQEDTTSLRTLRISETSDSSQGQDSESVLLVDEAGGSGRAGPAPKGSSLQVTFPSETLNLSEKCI

Row | SMILES | IC50 [nM]
1 | C[C@H](NC(=O)c1c(C(F)(F)F)nn2c1N(Cc1ccc(I)c(C(F)(F)F)c1)CC2)c1ccc(C(=O)O)cc1 [Compound 68, (S)-4-(1-(1-(4-iodo-3-(trifluoromethyl)benzyl)-6-(trifluoromethyl)-2,3-dihydro-1H-imidazo[1,2-b]pyrazole-7-carboxamido)ethyl)benzoic acid] | 10.9
2 | C[C@H](NC(=O)c1c(C(F)(F)F)nn2c1N(Cc1cccc(I)c1)CC2)c1ccc(C(=O)O)cc1 [Compound 69, (S)-4-(1-(1-(3-iodobenzyl)-6-(trifluoromethyl)-2,3-dihydro-1H-imidazo[1,2-b]pyrazole-7-carboxamido)ethyl)benzoic acid] | 0.7
3 | C[C@H](NC(=O)c1c(C(F)(F)F)nn2c1N(Cc1ccccc1)CC2)c1ccc(C(=O)O)cc1 [Compound 70, (S)-4-(1-(1-benzyl-6-(trifluoromethyl)-2,3-dihydro-1H-imidazo[1,2-b]pyrazole-7-carboxamido)ethyl)benzoic acid] | 0.84
4 | C[C@H](NC(=O)c1c(C(F)(F)F)nn2c1N(Cc1cccc(C(F)(F)F)c1)CC2)c1ccc(C(=O)NS(=O)(=O)c2ccc([N+](=O)[O-])cc2)cc1 [Compound 71, (S)—N-(1-(4-(((4-nitrophenyl)sulfonyl)carbamoyl)phenyl)ethyl)-6-(trifluoromethyl)-1-(3-(trifluoromethyl)benzyl)-2,3-dihydro-1H-imidazo[1,2-b]pyrazole-7-carboxamide] | 5.87
5 | C[C@H](NC(=O)c1c(C(F)(F)F)nn2c1N(Cc1cccc(C(F)(F)F)c1)CC2)c1ccc(C(=O)NS(=O)(=O)c2ccc(N)cc2)cc1 [Compound 72, (S)—N-(1-(4-(((4-aminophenyl)sulfonyl)carbamoyl)phenyl)ethyl)-6-(trifluoromethyl)-1-(3-(trifluoromethyl)benzyl)-2,3-dihydro-1H-imidazo[1,2-b]pyrazole-7-carboxamide] | 51.2
6 | C[C@H](NC(=O)c1c(C(F)(F)F)nn2c1N(Cc1ccc(N)cc1)CC2)c1ccc(C(=O)O)cc1 [Compound 73, (S)-4-(1-(1-(4-aminobenzyl)-6-(trifluoromethyl)-2,3-dihydro-1H-imidazo[1,2-b]pyrazole-7-carboxamido)ethyl)benzoic Acid] | 1.49
7 | C[C@H](NC(=O)c1c(C(F)(F)F)nn2c1N(Cc1cccc(COCCF)c1)CC2)c1ccc(C(=O)O)cc1 [Compound 74, (S)-4-(1-(1-(3-((2-fluoroethoxy)methyl)benzyl)-6-(trifluoromethyl)-2,3-dihydro-1H-imidazo[1,2-b]pyrazole-7-carboxamido)ethyl)benzoic Acid] | 28
8 | C[C@H](NC(=O)c1c(C(F)(F)F)nn2c1N(Cc1cccc(OCCF)c1)CC2)c1ccc(C(=O)O)cc1 [Compound 75, (S)-4-(1-(1-(3-(2-fluoroethoxy)benzyl)-6-(trifluoromethyl)-2,3-dihydro-1H-imidazo[1,2-b]pyrazole-7-carboxamido)ethyl)benzoic Acid] | 4.66
9 | C[C@H](NC(=O)c1c(C(F)(F)F)nn2c1[N+]([O-])(Cc1cccc(I)c1)CC2)c1ccc(C(=O)O)cc1 (stereo partly drawn) [Compound 76, 7-(((S)-1-(4-carboxyphenyl)ethyl)carbamoyl)-1-(3-iodobenzyl)-6-(trifluoromethyl)-2,3-dihydro-1H-imidazo[1,2-b]pyrazole 1-oxide] | 4.12
10 | C[C@H](NC(=O)c1c(C(F)(F)F)nn2c1N(Cc1cc(O)cc(C(F)(F)F)c1)CC2)c1ccc(C(=O)O)cc1 [Compound 77, (S)-4-(1-(1-(3-hydroxy-5-(trifluoromethyl)benzyl)-6-(trifluoromethyl)-2,3-dihydro-1H-imidazo[1,2-b]pyrazole-7-carboxamido)ethyl)benzoic Acid] | 0.182
11 | C[C@H](NC(=O)c1c(C(F)(F)F)nn2c1N(CC1CCC(CF)CC1)CC2)c1ccc(C(=O)O)cc1 (stereo partly drawn) [Compound 78, (S)-4-(1-(1-((4-(fluoromethyl)cyclohexyl)methyl)-6-(trifluoromethyl)-2,3-dihydro-1H-imidazo[1,2-b]pyrazole-7-carboxamido)ethyl)benzoic acid] | 63
12 | C=C1CCC(CN2CCn3nc(C(F)(F)F)c(C(=O)N[C@@H](C)c4ccc(C(=O)O)cc4)c32)CC1 [Compound 79, (S)-4-(1-(1-((4-methylenecyclohexyl)methyl)-6-(trifluoromethyl)-2,3-dihydro-1H-imidazo[1,2-b]pyrazole-7-carboxamido)ethyl)benzoic acid] | 18.9
13 | C[C@H](NC(=O)c1c(C(F)(F)F)nn2c1N(Cc1cccc(C(F)(F)F)c1)C[C@H]2COCc1ccccc1)c1ccc(C(=O)O)cc1 [Compound 80, 4-((S)-1-((S)-3-((benzyloxy)methyl)-6-(trifluoromethyl)-1-(3-(trifluoromethyl)benzyl)-2,3-dihydro-1H-imidazo[1,2-b]pyrazole-7-carboxamido)ethyl)benzoic Acid] | 58.1
14 | C[C@H](NC(=O)c1c(C(F)(F)F)nn2c1N(Cc1cccc(C(F)(F)F)c1)C[C@H]2CF)c1ccc(C(=O)O)cc1 [Compound 81, 4-((S)-1-((S)-3-(fluoromethyl)-6-(trifluoromethyl)-1-(3-(trifluoromethyl)benzyl)-2,3-dihydro-1H-imidazo[1,2-b]pyrazole-7-carboxamido)ethyl)benzoic acid] | 0.26
15 | Cc1cn(Cc2cccc(C(F)(F)F)c2)c2c(C(=O)N[C@@H](C)c3ccc(C(=O)O)cc3)c(C(F)(F)F)nn12 [Compound 82, (S)-4-(1-(3-methyl-6-(trifluoromethyl)-1-(3-(trifluoromethyl)benzyl)-1H-imidazo[1,2-b]pyrazole-7-carboxamido)ethyl)benzoic acid] | 1.1
16 | C[C@H](NC(=O)c1c(C(F)(F)F)nn2c1N(Cc1cccc(C(F)(F)F)c1)C[C@H]2CO)c1ccc(C(=O)O)cc1 [Compound 83, 4-((S)-1-((S)-3-(hydroxymethyl)-6-(trifluoromethyl)-1-(3-(trifluoromethyl)benzyl)-2,3-dihydro-1H-imidazo[1,2-b]pyrazole-7-carboxamido)ethyl)benzoic Acid] | 0.64
17 | C[C@H](NC(=O)c1c(C(F)(F)F)nn2c1N(Cc1cc(F)cc(C(F)(F)F)c1)CC2)c1ccc(C(=O)O)cc1 [Compound 84, (S)-4-(1-(1-(3-fluoro-5-(trifluoromethyl)benzyl)-6-(trifluoromethyl)-2,3-dihydro-1H-imidazo[1,2-b]pyrazole-7-carboxamido)ethyl)benzoic acid] | 0.358
18 | C[C@H](NC(=O)c1c(C(F)(F)F)nn2c1N(Cc1cc(Br)cc(C(F)(F)F)c1)CC2)c1ccc(C(=O)O)cc1 [Compound 85, (S)-4-(1-(1-(3-bromo-5-(trifluoromethyl)benzyl)-6-(trifluoromethyl)-2,3-dihydro-1H-imidazo[1,2-b]pyrazole-7-carboxamido)ethyl)benzoic Acid] | 0.12
19 | C[C@H](NC(=O)c1c(C(F)(F)F)nn2c1N(Cc1ccc(O)cc1)CC2)c1ccc(C(=O)O)cc1 [Compound 86, (S)-4-(1-(1-(4-hydroxybenzyl)-6-(trifluoromethyl)-2,3-dihydro-1H-imidazo[1,2-b]pyrazole-7-carboxamido)ethyl)benzoic Acid] | 1.48
20 | O=C(O)c1ccc([C@H](CO)NC(=O)c2c(C(F)(F)F)nn3c2N(Cc2cccc(C(F)(F)F)c2)CC3)cc1 [Compound 87, (R)-4-(2-hydroxy-1-(6-(trifluoromethyl)-1-(3-(trifluoromethyl)benzyl)-2,3-dihydro-1H-imidazo[1,2-b]pyrazole-7-carboxamido)ethyl)benzoic Acid] | 34.7
21 | C[C@H](NC(=O)c1c(C(F)(F)F)nn2c1N(Cc1ccc(N(C)C)cc1)CC2)c1ccc(C(=O)O)cc1 [Compound 88, (S)-4-(1-(1-(4-(dimethylamino)benzyl)-6-(trifluoromethyl)-2,3-dihydro-1H-imidazo[1,2-b]pyrazole-7-carboxamido)ethyl)benzoic Acid] | 18.5
22 | C[C@H](NC(=O)c1c(C(F)(F)F)nn2c1N(Cc1cccc(N(C)C)c1)CC2)c1ccc(C(=O)O)cc1 [Compound 89, (S)-4-(1-(1-(3-(dimethylamino)benzyl)-6-(trifluoromethyl)-2,3-dihydro-1H-imidazo[1,2-b]pyrazole-7-carboxamido)ethyl)benzoic Acid] | 1.57
23 | C[C@H](NC(=O)c1c(C(F)(F)F)nn2c1N(Cc1cc(N(C)C)cc(C(F)(F)F)c1)CC2)c1ccc(C(=O)O)cc1 [Compound 90, (S)-4-(1-(1-(3-(dimethylamino)-5-(trifluoromethyl)benzyl)-6-(trifluoromethyl)-2,3-dihydro-1H-imidazo[1,2-b]pyrazole-7-carboxamido)ethyl)benzoic Acid] | 6.37
24 | C[C@H](NC(=O)c1c(CF)nn2c1N(Cc1cccc(C(F)(F)F)c1)CC2)c1ccc(C(=O)O)cc1 [Compound 91, (S)-4-(1-(6-(Fluoromethyl)-1-(3-(trifluoromethyl)benzyl)-2,3-dihydro-1H-imidazo[1,2-b]pyrazole-7-carboxamido)ethyl)benzoic Acid] | 0.636
25 | C=Cc1nn2c(c1C(=O)N[C@@H](C)c1ccc(C(=O)O)cc1)N(Cc1cccc(C(F)(F)F)c1)CC2 [Compound 92, (S)-4-(1-(1-(3-(Trifluoromethyl)benzyl)-6-vinyl-2,3-dihydro-1H-imidazo[1,2-b]pyrazole-7-carboxamido)ethyl)benzoic Acid] | 5.43
26 | C[C@H](NC(=O)c1c(CO)nn2c1N(Cc1cccc(C(F)(F)F)c1)CC2)c1ccc(C(=O)O)cc1 [Compound 93, (S)-4-(1-(6-(Hydroxymethyl)-1-(3-(trifluoromethyl)benzyl)-2,3-dihydro-1H-imidazo[1,2-b]pyrazole-7-carboxamido)ethyl)benzoic Acid] | 6.59
27 | C[C@H](NC(=O)c1c(C(F)F)nn2c1N(Cc1cccc(C(F)(F)F)c1)CC2)c1ccc(C(=O)O)cc1 [Compound 94, (S)-4-(1-(6-(Difluoromethyl)-1-(3-(trifluoromethyl)benzyl)-2,3-dihydro-1H-imidazo[1,2-b]pyrazole-7-carboxamido)ethyl)benzoic Acid] | 0.343
